Measured values taken from ChEMBL document CHEMBL5465560, “Selectivity Literature for EUbOPEN Chemogenomic Library” (2024).
Blank lines part the entries; values can stand above or below the compound they belong to.

Assays:
[1] = target: T1, Tyrosine-protein kinase JAK3 (Homo sapiens) (UniProt P52333); experiment: Selectivity interaction (Kinase panel (Z-LYTE Assay)) EUB0001632a JAK3; details: at 10 µM
T1 sequence (whole entry): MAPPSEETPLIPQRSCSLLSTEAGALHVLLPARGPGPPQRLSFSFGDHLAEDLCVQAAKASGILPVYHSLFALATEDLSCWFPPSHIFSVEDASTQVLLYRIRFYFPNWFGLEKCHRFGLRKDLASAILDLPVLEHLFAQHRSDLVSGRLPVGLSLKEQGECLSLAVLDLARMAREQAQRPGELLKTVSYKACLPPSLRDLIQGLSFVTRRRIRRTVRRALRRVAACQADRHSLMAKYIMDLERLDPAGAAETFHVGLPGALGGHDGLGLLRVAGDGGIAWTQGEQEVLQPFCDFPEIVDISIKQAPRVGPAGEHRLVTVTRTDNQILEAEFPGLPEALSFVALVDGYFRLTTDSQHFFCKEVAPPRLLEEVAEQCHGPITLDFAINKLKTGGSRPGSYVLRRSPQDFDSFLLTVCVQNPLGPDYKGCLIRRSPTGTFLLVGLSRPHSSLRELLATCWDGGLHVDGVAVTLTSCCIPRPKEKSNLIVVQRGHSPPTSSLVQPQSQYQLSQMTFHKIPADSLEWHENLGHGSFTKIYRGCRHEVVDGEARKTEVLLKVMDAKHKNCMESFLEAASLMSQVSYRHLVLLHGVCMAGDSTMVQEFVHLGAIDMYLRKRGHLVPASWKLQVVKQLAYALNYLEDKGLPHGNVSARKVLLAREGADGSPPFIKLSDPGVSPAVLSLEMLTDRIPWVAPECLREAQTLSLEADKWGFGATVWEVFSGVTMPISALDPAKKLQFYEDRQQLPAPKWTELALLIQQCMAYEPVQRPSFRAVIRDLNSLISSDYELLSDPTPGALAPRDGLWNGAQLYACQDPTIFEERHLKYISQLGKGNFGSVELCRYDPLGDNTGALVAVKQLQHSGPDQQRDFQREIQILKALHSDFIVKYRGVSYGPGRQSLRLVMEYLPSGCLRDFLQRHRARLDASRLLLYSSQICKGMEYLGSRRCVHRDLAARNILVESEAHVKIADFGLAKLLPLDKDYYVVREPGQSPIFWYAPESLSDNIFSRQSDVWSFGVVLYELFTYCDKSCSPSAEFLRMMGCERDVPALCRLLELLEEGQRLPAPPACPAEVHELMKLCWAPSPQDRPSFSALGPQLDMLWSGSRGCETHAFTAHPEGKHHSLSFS

[2] = target: Serine/threonine-protein kinase 38-like (Homo sapiens) (UniProt Q9Y2H1); experiment: Selectivity interaction (ActivX KiNativ screen (kinase selectivity in THP-1 cell lysates)) EUB0000639a STK38L; type: subcellular; details: lysate, at 1 µM
[3] = target: T2, Inhibitor of nuclear factor kappa-B kinase subunit epsilon (Homo sapiens) (UniProt Q14164); experiment: Selectivity interaction (ActivX KiNativ screen (kinase selectivity in THP-1 cell lysates)) EUB0000639a IKBKE; type: subcellular; details: lysate, at 5 µM
T2 sequence (whole entry): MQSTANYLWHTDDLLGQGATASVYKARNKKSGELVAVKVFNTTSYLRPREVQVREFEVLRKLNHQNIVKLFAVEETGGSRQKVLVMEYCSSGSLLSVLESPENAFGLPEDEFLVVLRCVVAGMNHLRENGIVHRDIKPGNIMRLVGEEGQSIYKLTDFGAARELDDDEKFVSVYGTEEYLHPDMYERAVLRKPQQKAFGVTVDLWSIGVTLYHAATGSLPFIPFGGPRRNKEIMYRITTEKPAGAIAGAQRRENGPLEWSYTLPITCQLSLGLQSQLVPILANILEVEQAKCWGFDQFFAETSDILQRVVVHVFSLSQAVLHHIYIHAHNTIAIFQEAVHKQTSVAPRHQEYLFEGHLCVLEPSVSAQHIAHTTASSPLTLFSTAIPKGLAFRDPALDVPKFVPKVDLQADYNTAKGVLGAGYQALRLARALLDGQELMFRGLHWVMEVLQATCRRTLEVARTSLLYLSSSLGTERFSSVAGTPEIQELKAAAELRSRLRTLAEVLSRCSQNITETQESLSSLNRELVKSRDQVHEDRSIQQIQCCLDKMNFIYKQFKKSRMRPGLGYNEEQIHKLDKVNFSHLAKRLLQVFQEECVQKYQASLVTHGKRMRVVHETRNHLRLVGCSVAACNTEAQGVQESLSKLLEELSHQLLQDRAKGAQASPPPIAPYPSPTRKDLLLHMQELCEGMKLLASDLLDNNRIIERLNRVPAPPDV

[4] = target: Mitogen-activated protein kinase 7 (Homo sapiens) (UniProt Q13164); experiment: Selectivity interaction (ProQinase) EUB0000171b MAPK7
[5] = target: T3, Dual specificity mitogen-activated protein kinase kinase 4 (Homo sapiens) (UniProt P45985); experiment: Selectivity interaction (KinomeScan (DiscoverX)) EUB0001550a MAP2K4; details: at 1 µM
T3 sequence (whole entry): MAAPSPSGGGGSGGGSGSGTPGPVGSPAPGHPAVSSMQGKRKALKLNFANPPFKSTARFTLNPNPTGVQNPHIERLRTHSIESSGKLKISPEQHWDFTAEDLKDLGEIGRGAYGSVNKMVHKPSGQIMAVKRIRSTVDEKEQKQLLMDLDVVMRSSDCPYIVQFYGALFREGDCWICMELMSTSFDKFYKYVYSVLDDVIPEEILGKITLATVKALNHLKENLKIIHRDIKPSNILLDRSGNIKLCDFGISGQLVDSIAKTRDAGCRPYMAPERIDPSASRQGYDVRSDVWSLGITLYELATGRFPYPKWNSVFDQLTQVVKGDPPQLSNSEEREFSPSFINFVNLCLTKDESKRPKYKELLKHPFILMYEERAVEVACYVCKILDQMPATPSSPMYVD

[6] = target: 1-phosphatidylinositol 3-phosphate 5-kinase (Homo sapiens) (UniProt Q9Y2I7); experiment: Selectivity interaction (KinomeScan (DiscoverX)) EUB0001550a PIKFYVE; details: at 1 µM
[7] = target: Death-associated protein kinase 1 (Homo sapiens, UniProt P53355); experiment: Selectivity interaction (KinomeScan (DiscoverX)) EUB0000229b DAPK1; details: at 10 µM
Sequence of Death-associated protein kinase 1 (P53355 whole entry, looked up): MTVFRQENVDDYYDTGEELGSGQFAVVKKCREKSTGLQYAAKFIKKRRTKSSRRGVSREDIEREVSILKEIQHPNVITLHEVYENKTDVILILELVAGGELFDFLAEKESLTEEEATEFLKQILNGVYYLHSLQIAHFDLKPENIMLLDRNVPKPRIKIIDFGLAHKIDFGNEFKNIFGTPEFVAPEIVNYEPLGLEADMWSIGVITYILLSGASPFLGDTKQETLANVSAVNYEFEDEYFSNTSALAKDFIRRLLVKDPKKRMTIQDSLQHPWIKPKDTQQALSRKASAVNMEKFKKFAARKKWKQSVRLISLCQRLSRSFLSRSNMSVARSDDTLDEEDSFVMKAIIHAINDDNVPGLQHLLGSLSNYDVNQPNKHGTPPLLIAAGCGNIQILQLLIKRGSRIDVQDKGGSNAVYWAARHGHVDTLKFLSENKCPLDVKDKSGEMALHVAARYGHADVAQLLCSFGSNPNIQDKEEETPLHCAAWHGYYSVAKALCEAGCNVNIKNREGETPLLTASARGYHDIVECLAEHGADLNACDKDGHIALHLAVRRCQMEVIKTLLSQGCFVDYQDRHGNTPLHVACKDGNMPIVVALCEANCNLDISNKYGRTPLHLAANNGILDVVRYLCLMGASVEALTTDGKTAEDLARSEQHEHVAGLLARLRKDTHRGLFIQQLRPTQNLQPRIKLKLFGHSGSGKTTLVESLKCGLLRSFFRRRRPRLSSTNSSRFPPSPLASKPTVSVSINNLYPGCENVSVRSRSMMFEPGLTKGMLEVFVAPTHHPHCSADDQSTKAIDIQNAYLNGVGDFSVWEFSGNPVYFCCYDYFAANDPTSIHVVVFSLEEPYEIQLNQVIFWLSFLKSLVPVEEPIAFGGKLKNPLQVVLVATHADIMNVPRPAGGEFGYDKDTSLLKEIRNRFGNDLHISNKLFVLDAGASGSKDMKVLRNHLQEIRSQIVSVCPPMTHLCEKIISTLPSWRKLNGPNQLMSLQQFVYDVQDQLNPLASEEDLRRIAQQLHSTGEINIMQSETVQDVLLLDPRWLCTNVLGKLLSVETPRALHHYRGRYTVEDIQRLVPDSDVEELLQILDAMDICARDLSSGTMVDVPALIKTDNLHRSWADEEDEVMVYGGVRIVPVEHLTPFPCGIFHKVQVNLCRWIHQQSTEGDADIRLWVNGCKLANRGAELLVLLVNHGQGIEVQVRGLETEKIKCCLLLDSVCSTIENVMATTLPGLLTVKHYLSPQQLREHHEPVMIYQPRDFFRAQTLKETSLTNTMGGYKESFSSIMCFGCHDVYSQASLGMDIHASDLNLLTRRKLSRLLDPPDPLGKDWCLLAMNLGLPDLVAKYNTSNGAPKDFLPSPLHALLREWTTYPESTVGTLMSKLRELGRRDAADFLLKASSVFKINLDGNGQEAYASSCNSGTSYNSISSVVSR

Sequence of Mitogen-activated protein kinase 7 (Homo sapiens) (Q13164 2-816 limits assumed): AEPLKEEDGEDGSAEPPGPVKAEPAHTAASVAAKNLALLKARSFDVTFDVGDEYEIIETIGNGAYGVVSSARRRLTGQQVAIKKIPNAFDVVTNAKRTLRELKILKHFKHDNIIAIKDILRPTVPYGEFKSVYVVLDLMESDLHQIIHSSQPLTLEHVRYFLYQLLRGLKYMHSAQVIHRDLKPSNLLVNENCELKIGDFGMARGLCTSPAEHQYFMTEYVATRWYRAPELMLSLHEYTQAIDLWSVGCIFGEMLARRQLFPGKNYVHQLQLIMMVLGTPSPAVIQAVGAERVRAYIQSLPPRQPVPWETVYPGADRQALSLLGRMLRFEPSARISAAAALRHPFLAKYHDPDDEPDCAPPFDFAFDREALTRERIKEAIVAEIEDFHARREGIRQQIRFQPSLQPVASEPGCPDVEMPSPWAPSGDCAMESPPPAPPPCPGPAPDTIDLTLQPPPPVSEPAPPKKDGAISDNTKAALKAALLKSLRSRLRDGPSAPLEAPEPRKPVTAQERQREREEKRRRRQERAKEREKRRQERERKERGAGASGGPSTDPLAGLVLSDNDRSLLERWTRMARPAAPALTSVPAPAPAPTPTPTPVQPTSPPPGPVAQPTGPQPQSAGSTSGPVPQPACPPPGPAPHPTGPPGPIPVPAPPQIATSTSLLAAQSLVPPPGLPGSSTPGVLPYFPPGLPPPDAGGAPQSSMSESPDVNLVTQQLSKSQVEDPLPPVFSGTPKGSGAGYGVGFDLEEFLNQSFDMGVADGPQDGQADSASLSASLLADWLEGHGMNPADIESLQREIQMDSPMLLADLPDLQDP
Sequence of Serine/threonine-protein kinase 38-like (Homo sapiens) (Q9Y2H1 2-464 limits assumed): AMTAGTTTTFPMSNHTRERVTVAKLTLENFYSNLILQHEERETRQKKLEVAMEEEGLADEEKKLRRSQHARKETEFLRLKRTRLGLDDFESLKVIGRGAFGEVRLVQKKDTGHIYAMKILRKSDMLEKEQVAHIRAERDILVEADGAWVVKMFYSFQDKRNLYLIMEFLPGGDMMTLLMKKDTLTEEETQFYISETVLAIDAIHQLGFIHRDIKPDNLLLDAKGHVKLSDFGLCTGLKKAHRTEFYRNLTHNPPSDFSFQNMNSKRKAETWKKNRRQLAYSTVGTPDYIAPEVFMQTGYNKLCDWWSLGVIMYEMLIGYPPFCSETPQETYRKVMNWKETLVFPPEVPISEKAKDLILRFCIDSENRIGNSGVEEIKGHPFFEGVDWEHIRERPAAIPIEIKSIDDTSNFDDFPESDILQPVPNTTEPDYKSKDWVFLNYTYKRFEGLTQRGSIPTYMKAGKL
Sequence of 1-phosphatidylinositol 3-phosphate 5-kinase (Homo sapiens) (Q9Y2I7 whole entry): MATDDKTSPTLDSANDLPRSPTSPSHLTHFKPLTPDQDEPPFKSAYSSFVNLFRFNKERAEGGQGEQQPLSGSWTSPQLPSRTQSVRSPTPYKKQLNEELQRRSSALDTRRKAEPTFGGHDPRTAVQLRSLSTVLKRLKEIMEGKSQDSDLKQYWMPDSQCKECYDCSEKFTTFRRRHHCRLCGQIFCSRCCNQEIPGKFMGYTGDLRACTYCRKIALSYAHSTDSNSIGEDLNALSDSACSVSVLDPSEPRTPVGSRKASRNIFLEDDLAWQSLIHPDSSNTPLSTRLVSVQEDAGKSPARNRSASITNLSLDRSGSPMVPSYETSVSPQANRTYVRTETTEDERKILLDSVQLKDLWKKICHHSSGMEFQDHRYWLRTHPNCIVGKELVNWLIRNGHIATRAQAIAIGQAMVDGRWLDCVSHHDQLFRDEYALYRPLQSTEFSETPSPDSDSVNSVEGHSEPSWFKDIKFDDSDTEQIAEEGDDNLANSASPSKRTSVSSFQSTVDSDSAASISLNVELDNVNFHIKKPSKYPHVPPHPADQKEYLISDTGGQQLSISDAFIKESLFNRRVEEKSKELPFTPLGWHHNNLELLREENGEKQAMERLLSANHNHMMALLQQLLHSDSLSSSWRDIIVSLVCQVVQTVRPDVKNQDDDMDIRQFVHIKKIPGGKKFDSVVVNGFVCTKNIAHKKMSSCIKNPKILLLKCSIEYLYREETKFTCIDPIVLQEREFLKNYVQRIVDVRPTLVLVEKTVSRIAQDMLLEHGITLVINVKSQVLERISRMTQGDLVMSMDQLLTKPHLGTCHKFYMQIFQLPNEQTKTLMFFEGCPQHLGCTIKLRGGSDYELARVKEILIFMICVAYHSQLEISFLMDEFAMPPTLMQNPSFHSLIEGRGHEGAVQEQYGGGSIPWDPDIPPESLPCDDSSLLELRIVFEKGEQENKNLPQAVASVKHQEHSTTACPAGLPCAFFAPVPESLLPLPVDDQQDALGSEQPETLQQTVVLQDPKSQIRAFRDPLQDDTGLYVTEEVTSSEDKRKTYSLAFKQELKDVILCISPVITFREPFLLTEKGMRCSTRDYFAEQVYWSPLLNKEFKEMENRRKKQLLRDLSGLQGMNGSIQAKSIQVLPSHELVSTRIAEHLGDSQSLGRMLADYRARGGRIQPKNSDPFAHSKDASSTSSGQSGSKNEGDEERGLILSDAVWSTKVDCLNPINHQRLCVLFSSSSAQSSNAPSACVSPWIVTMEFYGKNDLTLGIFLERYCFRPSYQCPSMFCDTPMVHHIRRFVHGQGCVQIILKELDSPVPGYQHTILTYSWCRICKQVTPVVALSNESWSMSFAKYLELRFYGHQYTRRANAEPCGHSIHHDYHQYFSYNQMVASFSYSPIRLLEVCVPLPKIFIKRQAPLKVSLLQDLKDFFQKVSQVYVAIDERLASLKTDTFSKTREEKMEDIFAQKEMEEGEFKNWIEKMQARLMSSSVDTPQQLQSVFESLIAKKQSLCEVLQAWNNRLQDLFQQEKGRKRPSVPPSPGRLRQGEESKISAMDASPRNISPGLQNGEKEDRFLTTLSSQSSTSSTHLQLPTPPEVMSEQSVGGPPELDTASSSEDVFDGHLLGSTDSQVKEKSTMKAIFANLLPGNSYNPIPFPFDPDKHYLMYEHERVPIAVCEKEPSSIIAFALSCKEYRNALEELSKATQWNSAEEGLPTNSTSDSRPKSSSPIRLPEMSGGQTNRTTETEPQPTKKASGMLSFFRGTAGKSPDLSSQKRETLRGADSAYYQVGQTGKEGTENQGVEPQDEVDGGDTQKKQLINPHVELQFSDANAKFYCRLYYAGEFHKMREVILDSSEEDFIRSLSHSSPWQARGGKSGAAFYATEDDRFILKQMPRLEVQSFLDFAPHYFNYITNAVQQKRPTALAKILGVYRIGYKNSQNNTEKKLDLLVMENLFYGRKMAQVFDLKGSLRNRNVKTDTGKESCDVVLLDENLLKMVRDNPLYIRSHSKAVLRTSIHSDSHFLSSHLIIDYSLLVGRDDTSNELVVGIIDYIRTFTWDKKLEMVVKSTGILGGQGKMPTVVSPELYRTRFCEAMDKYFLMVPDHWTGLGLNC

Structure (SMILES): Cn1cc(-n2cnc3c(NCc4nc5cc(Cl)c(Cl)cc5[nH]4)nc(N4CCOCC4)nc32)cn1
% of control [1]: 16.9%

Structure (SMILES): CN(C)CC#Cc1ccc2[nH]c3c(c2c1)-c1nc(N)ncc1CCC3
% of control [5]: 12%
% of control [6]: 0.1%

Structure (SMILES): COc1cc(N(C)c2ccnc3ccc(C(F)(F)F)cc23)cc(OC)c1OC
% binding [7]: 94%

Other lines, results leading:

% of inhibition [2]: 47.8%
% of inhibition [3]: 26.2%
Structure (SMILES): CC[C@@H]1[C@H](F)C(=O)N[C@@H]1COc1nccc2cc(C(N)=O)c(OC)cc12 [ZIMLOVISERTIB]

% of control ([4]; at 1 µM): 83%
% of control ([4]; at 5 µM): 73%
Structure (SMILES): C=CC(=O)Nc1cccc(C(=O)Nc2ccc(Nc3cc(-c4[nH]c(SC)nc4C)ccn3)cc2)c1
